Measured values taken from US6841570B2, “Materials and methods for controlling wood-boring insects” (priority 2002, dated 2005).
“Also recorded” adds a separate entry of the source.

What was measured:
Reticultiermes flavipes [1] = test: Toxicity tests of nepetalactone on treated filter paper in petri dishes; assay type: in vivo; conditions: filter paper treated with acetone solutions; strengths 5.35%, 0.535%, 0.0535%, 0.000004%
Experimental: Materials: Reticultiermes flavipes, from the family Rhinotermitidae, the most common subterranean termites, were collected for toxicity tests, nepetalactone was obtained by commercial purchase (Kooky Kat Catnip Co., B.C.). For repellency assays, a donated amount of nepetalactone was provided from Iowa State University, courtesy of Dr. Joel Coates. Bioassays: Acetone was used as solvent for nepetalactone and control (permethrin). Absorbent (Fisherbrand) coarse, filter paper was treated with nepetalactone and controls and placed in standard, sterile polystyrene 100×15 mm petri dishes. Reticultierme flavipes (20 per replication) were placed in petri dishes and location monitored at 6 ten minute intervals. Toxicity tests: Toxicity tests of nepetalactone were conducted to determine non-lethal percentage for repellency assays. Permethrin (0.1%) solutions served as known control. Four strengths of nepetalactone were measured: 5.35%, 0.535%, 0.0535%, and 0.000004%. Based on the evident mortality, 0.0535% nepetalactone was selected as the repellency test solution.

Reticultiermes flavipes [2] = test: Repellency tests, half-treated filter paper in petri dishes; assay type: in vivo; conditions: 0.0535% nepetalactone on half of the filter paper; six ten minute intervals
Experimental: Materials: Reticultiermes flavipes, from the family Rhinotermitidae, the most common subterranean termites, were collected for toxicity tests, nepetalactone was obtained by commercial purchase (Kooky Kat Catnip Co., B.C.). For repellency assays, a donated amount of nepetalactone was provided from Iowa State University, courtesy of Dr. Joel Coates. Bioassays: Acetone was used as solvent for nepetalactone and control (permethrin). Absorbent (Fisherbrand) coarse, filter paper was treated with nepetalactone and controls and placed in standard, sterile polystyrene 100×15 mm petri dishes. Reticultierme flavipes (20 per replication) were placed in petri dishes and location monitored at 6 ten minute intervals. Repellency tests: Eight trials each of 0.0535% nepetalactone, 0.1% permethrin, blank, and pure acetone solvent were ran to test repellency. Filter papers were cut in half with solvent on one half and treated side on the opposite half. […] Termites were measured on treated and untreated sides at six consecutive ten minute intervals. Percent repellency was calculated as follows: (# live termites−# live termites treated)/total #termites. Standard mean of the Error (SEM): SEM=(variance)^1/2[…].

CC1=COC(=O)C2C(C)CCC12 (centres unmarked) [nepetalactone, 5,6,7,7a-tetrahydro-4,7-dimethyl cyclopenta[c]pyran-1-(4aH)-one]
toxic effect (mortality) to termites (Reticultiermes flavipes [1]): lethal to termites; also recorded: toxic effects
repellant effect on termites (Reticultiermes flavipes [2]): dramatic repellant effect; also recorded: clear repellant
